The values that follow come from ChEMBL document CHEMBL3045806, “Antimicrobial, analgesic, DPPH scavenging activities and molecular docking study of some 1,3,5-triaryl-2-pyrazolines” (2012).

Holding throughout (format): functional
For test [1], the system named is Pseudomonas aeruginosa. Description: Antimicrobial activity against Pseudomonas aeruginosa at 40 ug/ml after 24 hr by agar well diffusion method. The conditions noted are these: read-out: IZ. On the technique in general: In agar diffusion tests the substance spreads into inoculated agar from a disc or well.
Test [2] deals with Pseudomonas aeruginosa. Briefly: Antimicrobial activity against Pseudomonas aeruginosa after 24 hr by micro dilution method.
Test [3] relates to Klebsiella pneumoniae. Briefly: Antimicrobial activity against Klebsiella pneumoniae after 24 hr by micro dilution method.
Test [4] concerns Klebsiella pneumoniae. Briefly: Antimicrobial activity against Klebsiella pneumoniae at 40 ug/ml after 24 hr by agar well diffusion method. To be noted: read-out: IZ.
Test [5] deals with Aspergillus niger. Description: Antimicrobial activity against Aspergillus niger at 40 ug/ml after 72 hr by agar well diffusion method. The conditions noted are these: read-out: IZ.
Test [6] has as its system Aspergillus niger. Description: Antimicrobial activity against Aspergillus niger after 24 hr by micro dilution method.
Test [7] relates to Mus musculus. Briefly: Analgesic activity in Mus musculus Swiss albino (mouse) assessed as protection against acetic acid-induced writhing at 100 mg/kg, po administered 1 hr prior challenge measured after 5 min of challenge for 20 min.
Test [8] has as its system Bacillus subtilis. Briefly: Antimicrobial activity against Bacillus subtilis at 40 ug/ml after 24 hr by agar well diffusion method. To be noted: read-out: IZ.
The subject of test [9] is Bacillus subtilis. Description: Antimicrobial activity against Bacillus subtilis after 24 hr by micro dilution method.
Test [10] has as its system Candida albicans. Description: Antimicrobial activity against Candida albicans at 40 ug/ml after 72 hr by agar well diffusion method. To be noted: read-out: IZ.
The test system of test [11] is Streptococcus pyogenes. Briefly: Antimicrobial activity against Streptococcus pyogenes at 40 ug/ml after 24 hr by agar well diffusion method. The conditions noted are these: read-out: IZ.
In test [12] the test system is Candida albicans. Briefly: Antimicrobial activity against Candida albicans after 24 hr by micro dilution method.
Test [13] is described as follows: Antioxidant activity assessed as DPPH scavenging activity at 10 ug/ml after 30 min by UV-visible spectrophotometry.
Test [14] concerns Streptococcus pyogenes. Description: Antimicrobial activity against Streptococcus pyogenes after 24 hr by micro dilution method.

Converted amounts (≈) assume the structure as drawn.

With `c1ccc(C2=NN(c3ccccc3)C(c3ccccc3)C2)cc1` (stereo unspecified), the zone of inhibition at 40 µg/mL in test [1] amounted to 22 mm; in test [4], 23 mm; in test [5], 23 mm; in [8], 23 mm; in [10] it was 21 mm; in [11] it was 23 mm. The MIC in test [2] is 30 µg/mL (≈ 101 µM); in [3], 40 µg/mL (≈ 134 µM); in test [6], 30 µg/mL (≈ 101 µM); in [9] it was 40 µg/mL (≈ 134 µM); in [12] it was 30 µg/mL (≈ 101 µM); in test [14], 40 µg/mL (≈ 134 µM). In addition, the Activity in [7] stood at 57.8%; in [13], 23.1%.

For the molecule `OC(Cn1cncn1)(Cn1cncn1)c1ccc(F)cc1F` [FLUCONAZOLE], the zone of inhibition at 40 µg/mL in test [5] is 24 mm; in test [10] it was 23 mm.

For `COc1ccc(C2=NN(c3ccccc3)C(c3ccc(OC)cc3)C2)cc1` (stereo unspecified), the zone of inhibition at 40 µg/mL in test [1] amounted to 24 mm; in [4] it was 22 mm; in [5] it was 21 mm; in test [8], 21 mm; in test [10] it was 20 mm; in test [11], 23 mm. Also, the MIC turned out to be 30 µg/mL (≈ 83.7 µM) in test [2]; 30 µg/mL (≈ 83.7 µM) in [3]; 30 µg/mL (≈ 83.7 µM) in test [6]; 40 µg/mL (≈ 112 µM) in test [9]; 40 µg/mL (≈ 112 µM) in test [12]; 40 µg/mL (≈ 112 µM) in [14]. Moreover, the Activity in [7] was found to be 58.74%; in test [13], 39.6%.

As to `c1ccc(-c2ccc(C3=NN(c4ccccc4)C(c4ccc(-c5ccccc5)cc4)C3)cc2)cc1` (stereo unspecified), the zone of inhibition at 40 µg/mL is 22 mm in [1]; 23 mm in test [4]; 22 mm in [5]; 23 mm in test [8]; 21 mm in test [10]; 21 mm in [11]. Moreover, the MIC in test [2] is 30 µg/mL (≈ 66.6 µM); in test [3] it was 30 µg/mL (≈ 66.6 µM); in test [6] it was 40 µg/mL (≈ 88.8 µM); in [9], 40 µg/mL (≈ 88.8 µM); in test [12], 40 µg/mL (≈ 88.8 µM); in test [14], 40 µg/mL (≈ 88.8 µM). For the same molecule, the Activity in [7] amounted to 53.1%; in test [13], 18.2%.

Take `Fc1ccc(C2=NN(c3ccccc3)C(c3ccc(F)cc3)C2)cc1` (stereo unspecified): the zone of inhibition at 40 µg/mL in [1] came out at 20 mm; in test [4], 22 mm; in [5], 20 mm; in test [8] it was 21 mm; in test [10] it was 20 mm; in test [11], 23 mm. Moreover, the MIC in test [2] turned out to be 40 µg/mL (≈ 120 µM); in [3], 30 µg/mL (≈ 89.7 µM); in test [6], 40 µg/mL (≈ 120 µM); in [9] it was 30 µg/mL (≈ 89.7 µM); in test [12], 40 µg/mL (≈ 120 µM); in [14], 30 µg/mL (≈ 89.7 µM). In addition, the Activity in test [7] worked out at 49.65%; in [13], 51.2%.

Turning to `Cc1ccc(C2=NN(c3ccccc3)C(c3ccc(C)cc3)C2)cc1` (stereo unspecified), the zone of inhibition at 40 µg/mL in [1] worked out at 23 mm; in [4], 24 mm; in test [5], 24 mm; in [8], 20 mm; in test [10] it was 22 mm; in test [11], 22 mm. Further, the MIC in test [2] was 40 µg/mL (≈ 123 µM); in test [3] it was 30 µg/mL (≈ 91.9 µM); in test [6] it was 40 µg/mL (≈ 123 µM); in [9] it was 30 µg/mL (≈ 91.9 µM); in test [12] it was 30 µg/mL (≈ 91.9 µM); in test [14], 20 µg/mL (≈ 61.3 µM). For the same molecule, the Activity in [7] is 58.16%; in test [13], 22.4%.

As for `Brc1ccc(C2=NN(c3ccccc3)C(c3ccc(Br)cc3)C2)cc1` (stereo unspecified), the zone of inhibition at 40 µg/mL in [1] stood at 22 mm; in test [4] it was 21 mm; in [5] it was 20 mm; in test [8] it was 23 mm; in test [10], 20 mm; in test [11], 21 mm. Moreover, the MIC was determined as 30 µg/mL (≈ 65.8 µM) in test [2]; 40 µg/mL (≈ 87.7 µM) in test [3]; 40 µg/mL (≈ 87.7 µM) in test [6]; 40 µg/mL (≈ 87.7 µM) in test [9]; 20 µg/mL (≈ 43.8 µM) in test [12]; 40 µg/mL (≈ 87.7 µM) in test [14]. The Activity in test [7] was determined as 53.75%; in [13] it was 40.3%.

On to `Clc1ccc(C2=NN(c3ccccc3)C(c3ccc(Cl)cc3)C2)cc1` (stereo unspecified), for which the zone of inhibition at 40 µg/mL came out at 21 mm in test [1]; 20 mm in [4]; 22 mm in test [5]; 22 mm in test [8]; 21 mm in [10]; 24 mm in test [11]. The MIC in test [2], in test [3], in test [6], in test [9], in test [12] and in test [14] was 30 µg/mL (≈ 81.7 µM) in each case. Also, the figures for the Activity in [7] and in test [13] were 50% and 31.8%, respectively.

In the case of `CC(=O)Oc1ccccc1C(=O)O` [ASPIRIN], the Activity in test [7] is given as 58.25%.

Turning to `O=C(O)c1cn(C2CC2)c2cc(N3CCNCC3)c(F)cc2c1=O` [CIPROFLOXACIN], the zone of inhibition at 40 µg/mL in test [1], in test [4], in test [8] and in [11] was 24 mm each time.

Regarding `O=C1O[C@H]([C@@H](O)CO)C(O)=C1O`, the Activity in [13] was 69.2%.

The MIC is the smallest concentration in the dilution series that meets the test's criterion for growth inhibition. The low end stands for greater potency, the high end for weaker potency.
